Data taken from patent US20230365572A1, “HYDROXYLBENZYL AZABICYCLO[2.2.1]HEPTAN-1-ANE DRIVATIVES AND MEDICAL USES THEREOF” (ATROGI AB, priority 2020, published 2023).
Counter-ions that a name gives are not always drawn. Like-named read-outs stand apart in the source and are kept apart here.

Columns and labels:
Type in all cases: cell-based
L6-myotubes [1] = experiment: Glucose uptake in differentiated L6-myotubes (3H-2-deoxy-glucose); conditions: read-out: Biological example 1: glucose uptake, activity compared to that of isoproterenol
Description: L6-myoblasts were grown in Dulbecco's Modified Eagle's Medium (DMEM) containing 4.5 g/l glucose supplemented with 10% fetal bovine serum, 2 mM L-Glutamine, 50 U/ml penicillin, 50 1.1g/ml streptomycin and 10 mM HEPES. Cells were plated at 1×10^5 cells per ml in 24-well plates. After reaching 90% confluence the cells were grown in medium containing 2% FBS for 7 days where upon cells differentiated into myotubes. Differentiated L6-myotubes were serum-starved over night in medium containing 0.5% fatty-acid free BSA and stimulated with agonist, final concentration 1×10^−5. After 1 h 40 min cells were washed with warm, glucose free medium or PBS and another portion of agonist was added to glucose free medium. After 20 min the cells were exposed to 50 nM ^3H-2-deoxy-glucose for another 10 min before washed in ice cold glucose free medium or PBS and lysed in 0.2 M NaOH for 1 h in 60° C.

L6-myotubes [2] = experiment: Glucose uptake in L6-myotubes in the presence of the β2-antagonist ICI-118,551; conditions: differentiated L6-myotubes, ICI-118,551 1×10^−5 M, compound 1×10^−5 M
Description: L6-myoblasts were grown in Dulbecco's Modified Eagle's Medium (DMEM) containing 4.5 g/l glucose supplemented with 10% fetal bovine serum, 2 mM L-Glutamine, 50 U/ml penicillin, 50 1.1g/ml streptomycin and 10 mM HEPES. Cells were plated at 1×10^5 cells per ml in 24-well plates. After reaching 90% confluence the cells were grown in medium containing 2% FBS for 7 days where upon cells differentiated into myotubes. Differentiated L6-myotubes were serum-starved overnight in medium containing 0.5% fatty-acid free BSA and were incubated with the β2-adrenergic receptor antagonist ICI-118,551 at a final concentration of 1×10^−5 M for 30 min. The cells were stimulated with a compound of the invention, at a final concentration of 1×10^−5 M. After 1 h 40 min the cells were washed twice with warm, glucose free medium or PBS and additional portions of the compound of the invention and the antagonist were added. After 20 min the cells were exposed to 50 nM ^3H-2-deoxyglucose for 10 min before washed with ice cold glucose free medium or PBS three times and lysed with 0.2 M NaOH, 400 μL/well, for 1 h at 60° C. The cell lysate was mixed with 4 mL scintillation buffer (Emulsifier Safe, Perkin Elmer) and the radioactivity was detected in a β-counter (Tri-Carb 4810TR, Perkin Elmer). The activity for each compound is compared to that of isoproterenol.

[3] = tested on: Intracellular cAMP levels; experiment: Measurement of intracellular cAMP levels in differentiated L6 cells (alpha screen cAMP kit); conditions: Rattus norvegicus, L6, 0.25 h, read-out: Biological example 2: intracellular cAMP levels, activity compared to that of isoproterenol
Description: L6-myoblasts were grown in Dulbecco's Modified Eagle's Medium (DMEM) containing 4.5 g/l glucose supplemented with 10% fetal bovine serum, 2 mM L-Glutamine, 50 U/ml penicillin, 50 1.1g/ml streptomycin and 10 mM HEPES. Cells were plated at 1×10^5 cells per ml in 24-well plates. After reaching 90% confluence the cells were grown in medium containing 2% FBS for 7 days where upon cells differentiated into myotubes. Differentiated cells were serum-starved over night and stimulated with agonist, final concentration 1×10^−5 M, for 15 min in stimulation buffer (HBSS supplemented with 1% BSA, 5 mM HEPES and 1 mM IBMX, pH 7,4) The medium was then aspirated and to end the reaction 100 μL of 95% EtOH was added to each well of a 24-well plate and cells were kept in […] over night. The EtOH was let to evaporate and 5001 μof lysis buffer (1% BSA, 5 mM HEPES and 0.3% Tween-20, pH 7,4) was added to each well before put in −80° C. for 30 min and then kept in −20° C. Intracellular cAMP levels were detected using an alpha screen cAMP kit (6760635D from Perkin Elmer). The activity for each compound is compared to that of isoproterenol.

[4] = differentiated L6-myotubes, agonist final concentration 1×10^−5, 3H-2-deoxy-glucose uptake
[5] = differentiated cells, agonist final concentration 1×10^−5 M, 15 min

For CC12CCC([C@H](O)c3cccc(F)c3)(CC1)N2 [Example 1, (R)-(3-Fluorophenyl)(4-methyl-7-azabicyclo[2.2.1]heptan-1-yl)methanol hydrochloride], the Emax at 10 µM (L6-myotubes [1]; [4]) was > 75%, the “Biological example 3: glucose uptake in the presence of the β2-antagonist ICI-118,551, activity compared to that of isoproterenol” value (L6-myotubes [2]) was “− (if it less than 25% it is denoted with)” and the Emax at 10 µM [3, 5] was < 25%.
CC12CCC([C@@H](O)c3cccc(F)c3)(CC1)N2 [Example 2, (S)-(3-Fluorophenyl)(4-methyl-7-azabicyclo[2.2.1]heptan-1-yl)methanol hydrochloride] was tested, and the Emax at 10 µM (L6-myotubes [1]; [4]) was > 75%, the “Biological example 3: glucose uptake in the presence of the β2-antagonist ICI-118,551, activity compared to that of isoproterenol” value (L6-myotubes [2]) was “− (if it less than 25% it is denoted with)” and the Emax at 10 µM [3, 5] was < 25%.
For CC12CCC([C@H](O)c3ccccc3F)(CC1)N2 [Example 3, (R)-(2-Fluorophenyl)(4-methyl-7-azabicyclo[2.2.1]heptan-1-yl)methanol hydrochloride], the Emax at 10 µM (L6-myotubes [1]; [4]) was 50 to 75% and the Emax at 10 µM [3, 5] was < 25%.
CC12CCC([C@@H](O)c3ccccc3F)(CC1)N2 [Example 4, (S)-(2-Fluorophenyl)(4-methyl-7-azabicyclo[2.2.1]heptan-1-yl)methanol hydrochloride] was tested, and the Emax at 10 µM (L6-myotubes [1]; [4]) was 25 to 50% and the Emax at 10 µM [3, 5] was < 25%.
CC12CCC([C@H](O)c3cccc(Cl)c3)(CC1)N2 [Example 5, (R)-(3-Chlorophenyl)(4-methyl-7-azabicyclo[2.2.1]heptan-1-yl)methanol hydrochloride] was tested, and the Emax at 10 µM (L6-myotubes [1]; [4]) was > 75% and the Emax at 10 µM [3, 5] was < 25%.
CC12CCC([C@@H](O)c3cccc(Cl)c3)(CC1)N2 [Example 6, (S)-(3-Chlorophenyl)(4-methyl-7-azabicyclo[2.2.1]heptan-1-yl)methanol hydrochloride] was tested, and the Emax at 10 µM (L6-myotubes [1]; [4]) was 25 to 50% and the Emax at 10 µM [3, 5] was < 25%.
For CC12CCC([C@H](O)c3ccccc3Cl)(CC1)N2 [Example 7, (R)-(2-Chlorophenyl)(4-methyl-7-azabicyclo[2.2.1]heptan-1-yl)methanol hydrochloride], the Emax at 10 µM (L6-myotubes [1]; [4]) was > 75% and the Emax at 10 µM [3, 5] was < 25%.
CC12CCC([C@@H](O)c3ccccc3Cl)(CC1)N2 [Example 8, (5)-(2-Chlorophenyl)(4-methyl-7-azabicyclo[2.2.1]heptan-1-yl)methanol hydrochloride] was tested, and the Emax at 10 µM (L6-myotubes [1]; [4]) was 25 to 50% and the Emax at 10 µM [3, 5] was < 25%.
In the case of CC12CCC([C@H](O)c3cncc(F)c3)(CC1)N2 [Example 9, (R)-(3-fluoropyridin-4-yl)(4-methyl-7-azabicydo[2.2.1]heptan-1-yl)-methanol], the Emax at 10 µM (L6-myotubes [1]; [4]) was > 75% and the Emax at 10 µM [3, 5] was < 25%.
With CC12CCC([C@@H](O)c3cncc(F)c3)(CC1)N2 [Example 10, (S)-(3-fluoropyridin-4-yl)(4-methyl-7-azabicydo[2.2.1]heptan-1-yl)-methanol] the Emax at 10 µM (L6-myotubes [1]; [4]) was 50 to 75% and the Emax at 10 µM [3, 5] was < 25%.
For CC12CCC([C@H](O)c3ccncc3F)(CC1)N2 [Example 11, (R)-(3-Fluoropyridin-4-yl)(4-methyl-7-azabicyclo[2.2.1]heptan-1-yl)-methanol], the Emax at 10 µM (L6-myotubes [1]; [4]) was < 25% and the Emax at 10 µM [3, 5] was < 25%.
CC12CCC([C@@H](O)c3ccncc3F)(CC1)N2 [Example 12, (S)-(3-Fluoropyridin-4-yl)(4-methyl-7-azabicydo[2.2.1]heptan-1-yl)-methanol] was tested, and the Emax at 10 µM (L6-myotubes [1]; [4]) was < 25% and the Emax at 10 µM [3, 5] was < 25%.
With CCCC12CCC([C@H](O)c3cccc(F)c3)(CC1)N2 [Example 13, (R)-(3-Fluorophenyl)(4-propyl-7-azabicyclo[2.2.1]heptan-1-yl)methanol hydrochloride] the Emax at 10 µM (L6-myotubes [1]; [4]) was 50 to 75% and the Emax at 10 µM [3, 5] was 25 to 50%.
For CCCC12CCC([C@@H](O)c3cccc(F)c3)(CC1)N2 [Example 14, (S)-(3-Fluorophenyl)(4-propyl-7-azabicyclo[2.2.1]heptan-1-yl)methanol hydrochloride], the Emax at 10 µM (L6-myotubes [1]; [4]) was < 25% and the Emax at 10 µM [3, 5] was < 25%.
For COCC12CCC([C@@H](O)c3cccc(F)c3)(CC1)N2 [Example 15, (S)-(3-Fluorophenyl)(4-(methoxymethyl)-7-azabicyclo[2.2.1]heptan-1-yl)methanol hydrochloride], the Emax at 10 µM (L6-myotubes [1]) was 50 to 75% and the Emax at 10 µM [3] was < 25%.
In the case of COCC12CCC([C@H](O)c3cccc(F)c3)(CC1)N2 [Example 16, (R)-(3-Fluorophenyl)(4-(methoxymethyl)-7-azabicyclo[2.2.1]heptan-1-yl)methanol hydrochloride], the Emax at 10 µM (L6-myotubes [1]) was > 75%, the “Biological example 3: glucose uptake in the presence of the β2-antagonist ICI-118,551, activity compared to that of isoproterenol” value (L6-myotubes [2]) was “− (if it less than 25% it is denoted with)” and the Emax at 10 µM [3] was < 25%.
For O[C@@H](c1cccc(F)c1)C12CCC(COc3ccc(Cl)cc3)(CC1)N2 [Example 17, (S)-(4-((4-Chlorophenoxy)methyl)-7-azabicyclo[2.2.1]heptan-1-yl)(3-fluorophenyl)methanol], the Emax at 10 µM (L6-myotubes [1]; [4]) was 50 to 75% and the Emax at 10 µM [3, 5] was < 25%.
O[C@H](c1cccc(F)c1)C12CCC(COc3ccc(Cl)cc3)(CC1)N2 [Example 18, (R)-(4-((4-Chlorophenoxy)methyl)-7-azabicyclo[2.2.1]heptan-1-yl) (3-fluorophenyl)methanol] was tested, and the Emax at 10 µM (L6-myotubes [1]; [4]) was > 75% and the Emax at 10 µM [3, 5] was < 25%.
